Assay results: article PMC12191924, “A new naphthalene-based fluorogenic substrate for cytochrome P450 4A11” (Biochemical Journal, 2025)
“And” between values parts separate entries of the source, which are not always exact repeats. Equal values may be shown once.

Columns and labels:
[1] = target: T1, CYP1A2 (Homo sapiens, UniProt P05177); assay: MONACRA demethylation by recombinant CYP1A2 in Supersomes, high-throughput fluorimetric assay; assay type: biochemical; parameters: purchased Gentest (Supersomes), now a part of Discovery Life Sciences; CYP1A2 is not in the lot list; host or cells: insect cells, recombinant baculovirus
T1 sequence (P05177 2-516 limits assumed): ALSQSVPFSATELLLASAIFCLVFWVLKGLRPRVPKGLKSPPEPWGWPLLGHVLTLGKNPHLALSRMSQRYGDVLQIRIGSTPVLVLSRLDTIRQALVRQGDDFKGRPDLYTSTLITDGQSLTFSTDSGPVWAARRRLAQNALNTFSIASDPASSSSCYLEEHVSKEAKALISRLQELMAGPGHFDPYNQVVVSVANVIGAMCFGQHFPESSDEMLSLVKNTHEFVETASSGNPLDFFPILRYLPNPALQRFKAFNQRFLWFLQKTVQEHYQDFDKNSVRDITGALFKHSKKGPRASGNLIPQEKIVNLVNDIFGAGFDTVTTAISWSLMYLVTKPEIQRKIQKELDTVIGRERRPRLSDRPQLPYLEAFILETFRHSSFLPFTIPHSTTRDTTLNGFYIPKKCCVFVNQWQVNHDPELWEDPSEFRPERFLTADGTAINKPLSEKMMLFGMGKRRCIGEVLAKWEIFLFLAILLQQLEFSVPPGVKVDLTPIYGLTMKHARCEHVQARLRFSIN
Method: (§1) Based on these observations, we developed a high-throughput automated assay applicable for studying SSPs of MONACRA metabolism by microsomal P450 enzymes. In this procedure, the incubation mixtures containing an NADPH-generating system and various substrate concentrations are placed in a multiwell plate and preincubated at 30°C in a thermostated shaker. The reaction is started by adding microsomal suspension to the final concentration of 0.3–1 mg/ml of microsomal protein or 0.02–0.1 µM of recombinant P450 enzymes in Supersomes. Following the incubation for 20 min at 30°C, the reaction is quenched by adding trichloroacetic acid (final concentration […]). After supplementing the wells with Na-glycine buffer (pH 10.4, final concentration 2.1 M), the plates are subjected to scanning the fluorescence spectra with excitation at 375 nm. This assay, which is described in detail in Materials and Methods, allows reliable detection of the concentrations of HONACRA as low as 0.1 µM.
(§2) We used the high-throughput activity assay described above to probe MONACRA metabolism by 16 human microsomal P450 enzymes, namely CYP1A2, CYP2A6, CYP2B6, CYP2C8, CYP2C9, CYP2C19, CYP2D6, CYP2E1, CYP2J2, CYP3A4, CYP3A5, CYP4A11, CYP4F2, CYP4F3A, CYP4F3B, and CYP4F12. […]

[2] = target: T2, CYP2C8 (Homo sapiens, UniProt P10632); assay: MONACRA demethylation by recombinant CYP2C8 in Supersomes, high-throughput fluorimetric assay; assay type: biochemical
T2 construct: purchased Gentest (Huntsville, AL), now a part of Discovery Life Sciences lot 81760; host or cells: insect cells, recombinant baculovirus
T2 sequence (P10632 1-490): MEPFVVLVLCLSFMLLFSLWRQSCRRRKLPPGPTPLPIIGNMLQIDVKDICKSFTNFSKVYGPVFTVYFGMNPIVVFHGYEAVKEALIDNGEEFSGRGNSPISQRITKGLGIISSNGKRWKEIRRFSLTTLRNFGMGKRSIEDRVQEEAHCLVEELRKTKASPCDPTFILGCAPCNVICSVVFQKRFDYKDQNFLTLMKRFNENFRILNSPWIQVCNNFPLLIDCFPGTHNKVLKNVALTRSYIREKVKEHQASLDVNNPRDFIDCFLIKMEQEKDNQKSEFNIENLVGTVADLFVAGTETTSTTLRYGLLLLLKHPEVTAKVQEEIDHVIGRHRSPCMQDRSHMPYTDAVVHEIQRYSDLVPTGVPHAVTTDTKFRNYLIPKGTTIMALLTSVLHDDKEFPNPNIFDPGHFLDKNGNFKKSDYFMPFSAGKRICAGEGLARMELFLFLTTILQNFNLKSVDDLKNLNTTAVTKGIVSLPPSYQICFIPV
Method: as §1, §2

Vmax ([1]; substrate inhibition equation): 43.7 ± 5.9 min⁻¹
Ksi (substrate inhibition constant) ([1]; substrate inhibition equation (eqn 2)): 650 ± 200 µM and 648 ± 197 µM
rate of MONACRA metabolism by CYP2C8 [2]: negligibly small
SMILES: COc1ccc2cc(C=CC(=O)O)ccc2c1 [MONACRA, 3-(6-methoxynaphthalen-2-yl)acrylic acid]
